The text below walks through data of patent US10336735B2, “Small molecule inhibitors of fibrosis” (THE CALIFORNIA INSTITUTE FOR BIOMEDICAL RESEARCH, priority 2014, dated 2019).

The first assay has as its system primary human lung fibroblasts and primary rodent HSCs. Put plainly: High content imaging assay (α-SMA staining, cell morphology) of fibroblast to myofibroblast transdifferentiation, confirmed by Western blot and RT-PCR. The conditions noted are these: Homo sapiens, Fibroblast; imaging and western based activity. An excerpt: High content imaging assays have been established, using primary human lung fibroblasts and primary rodent HSCs, that enable the identification of small molecules that either inhibit myofibroblast formation/activation or induce the reversion of activated myofibroblasts to a quiescent fibroblast state. Conditions, involving serum starvation and subsequent TGF-β treatment, have been identified that facilitate robust in vitro transdifferentiation in a miniaturized (384 well plate) format that is amenable to high throughput small molecule screening. The inhibition assay is based on α-SMA immunofluorescent staining and cell morphology changes associated with fibroblast to myofibroblast transdifferentiation, Using the selective ALK-5 TGF-β1 receptor inhibitor ([…]) as a positive control, the inhibition assay has been used to initiate a screen of a collection of ˜100,000 small molecules that consists of bioactive small molecules and a diversity set that has been assembled based on 2D and 3D structural diversity and inherent “drug-likeness” properties. Preliminary screening led to the identification of multiple previously identified anti-fibrotic molecules.
A high content imaging assay, based on α-SMA staining and cell morphological changes associated with fibroblast to myofibroblast transdifferentiation, was established using primary human lung fibroblasts and primary rodent HSCs. Conditions, involving serum starvation and subsequent TGF-β treatment, were identified that facilitate robust in vitro transdifferentiation in a miniaturized (384 well plate) format that is amenable to high throughput small molecule screening. A selective ALK-5 TGF-β1 receptor inhibitor (SB-431542) was used as a positive control. […] This assay was used to evaluate compounds of Formula (I), (Ia), (II), (IIa), (III), (IIIa), (IV), (IVa), (IVb), (V), (Va), (VI), (VIa), (VIb), (VIc), (VII), (VIIa), (VIII), (VIIIa), (IX), (IXa), (X), or (Xa) generated from medicinal chemistry efforts.
The activity of Itraconazole and compounds of Formula (I), (Ia), (II), (IIa), (III), (IIIa), (IV), (IVa), (IVb), (V), (Va), (VI), (VIa), (VIb), (VIc), (VII), (VIIa), (VIII), (VIIIa), (IX), (IXa), (X), or (Xa) was confirmed by analyzing changes in gene expression of multiple genes associated with fibroblast to myofibroblast transdifferentiation using biochemical methods (i.e., Western blot and RT-PCR). These 4-day assays were used to evaluate sets of 6 compounds at a time in 4-point dose response fashion.
The EC50 for (imaging and western based) activity is graded as: +++=<500 nM; ++=500 nM to 5 μM; +=5 to 30 μM); −=>30 μM; NT=Not Tested.
In turn, `CCC(C)n1ncn(-c2ccc(N3CCN(c4ccc(OC[C@@H]5CO[C@@](Cn6cccn6)(c6ccccc6C#N)O5)cc4)CC3)cc2)c1=O` (some centres unmarked) [Compound 90] yielded an EC50 of 0.5 to 5 µM. As for `CCC(CC)n1ncn(-c2ccc(N3CCN(c4ccc(OC[C@@H]5CO[C@@](Cn6nccn6)(c6ccccc6)O5)cc4)CC3)cc2)c1=O` [Compound 161], the EC50 was below 0.5 µM. Regarding `CCC(C)n1ncn(-c2ccc(N3CCN(c4ccc(OC[C@@H]5CO[C@@](Cn6cccn6)(c6ccc(Cl)c(Cl)c6)O5)cc4)CC3)cc2)c1=O` (some centres unmarked) [Compound 84], the EC50 lay in the range of 0.5 to 5 µM. The same measure, in the same setting: in the case of `CC[C@H](C)n1ncn(-c2ccc(N3CCN(c4ccc(OC[C@@H]5CO[C@@](Cn6cccn6)(c6ccc(C#N)cc6C)O5)cc4)CC3)cc2)c1=O` [Compound 172] it was 0.5 to 5 µM; in that of `CCCC(C)n1ncn(-c2ccc(N3CCN(c4ccc(OC[C@@H]5CO[C@@](Cn6nccn6)(c6ccc(C#N)cc6C)O5)cc4)CC3)cc2)c1=O` (some centres unmarked) [Compound 23], 0.5 to 5 µM.

The molecule `N#Cc1cc(OC[C@@H]2CO[C@@](Cn3nccn3)(c3ccccc3)O2)ccc1N1CCN(c2ccc(-n3cnn(CC4CCCC4)c3=O)cc2)CC1` [Compound 156] returned an EC50 of 0.5 to 5 µM. `CC(C)Cn1ncn(-c2ccc(N3CCN(c4ccc(OC[C@@H]5CO[C@@](Cn6nccn6)(c6ccccc6)O5)cc4)CC3)cc2)c1=O` [Compound 19] yielded an EC50 of 0.5 to 5 µM. The same measure, in the same setting: to `CCC(C)n1ncn(-c2ccc(N3CCN(c4ccc(OC[C@@H]5CO[C@](Cc6ccnnc6)(c6ccc(S(C)(=O)=O)cc6)O5)cc4)CC3)cc2)c1=O` (some centres unmarked) [Compound 119] belongs 5 to 30 µM; to `CCC(C)n1ncn(-c2ccc(N3CCN(c4ccc(OC[C@@H]5CO[C@@](Cn6cccn6)(c6ccccc6Cl)O5)cc4)CC3)cc2)c1=O` (some centres unmarked) [Compound 83], below 0.5 µM; to `CCC(CC)n1ncn(-c2ccc(N3CCN(c4ccc(OC[C@@H]5CO[C@@](Cn6nccn6)(c6ccc(Cl)cc6Cl)O5)cc4F)CC3)cc2)c1=O` [Compound 164], below 0.5 µM.

With `CCC(C)n1ncn(-c2ccc(N3CCN(c4ccc(OC[C@@H]5CO[C@](Cc6ccnnc6)(c6ccc(OC)cc6)O5)cc4)CC3)cc2)c1=O` (some centres unmarked) [Compound 109], the EC50 lay in the range of 0.5 to 5 µM. `CCC(C)n1ncn(-c2ccc(N3CCN(c4ccc(OC[C@@H]5CO[C@@](Cc6ccnnc6)(c6ccc(Cl)cc6)O5)cc4)CC3)cc2)c1=O` (some centres unmarked) [Compound 123] registered an EC50 below 0.5 µM. Same read-out and setting: to `CCC(C)n1ncn(-c2ccc(N3CCN(c4ccc(OC[C@H]5OC[C@](Cn6cncn6)(c6ccc(F)cc6F)O5)cc4)CC3)cc2)c1=O` (mixture of isomers) [compound 200] belongs below 0.5 µM; to `CCC(C)n1ncn(-c2ccc(N3CCN(c4ccc(OC[C@@H]5CO[C@@](Cc6ccnnc6)(c6ccc(Cl)c(Cl)c6)O5)cc4)CC3)cc2)c1=O` (some centres unmarked) [Compound 126], below 0.5 µM; to `CCC(C)n1ncn(-c2ccc(N3CCN(c4ccc(OC[C@@H]5CO[C@](Cc6ccnnc6)(c6ccc(C(N)=O)cc6)O5)cc4)CC3)cc2)c1=O` (stereo partly drawn) [Compound 121, 4-((2S,4R)-4-((4-(4-(4-(1-sec-butyl-5-oxo-1H-1,2,4-triazol-4(5H)-yl)phenyl)piperazin-1-yl)phenoxy)methyl)-2-(pyridazin-4-ylmethyl)-1,3-dioxolan-2-yl)benzamide], 5 to 30 µM. Still for that read-out and setting: to `O=c1n(-c2ccc(N3CCN(c4ccc(OC[C@@H]5CO[C@@](Cn6nccn6)(c6ccc(Cl)cc6Cl)O5)cc4F)CC3)cc2)cnn1CC1CCCC1` [Compound 154] belongs below 0.5 µM; to `CCC(C)n1ncn(-c2ccc(N3CCN(c4ccc(OC[C@@H]5CO[C@@](Cn6nccn6)(c6ccc(Cl)cc6Cl)O5)nc4)CC3)cc2)c1=O` (some centres unmarked) [Compound 54], 0.5 to 5 µM.

`CCC(C)n1ncn(-c2ccc(N3CCN(c4ccc(OC[C@@H]5CO[C@@](Cn6nccn6)(c6ccccc6)O5)c(C#N)c4)CC3)cc2)c1=O` (some centres unmarked) [Compound 65] returned an EC50 below 0.5 µM. The molecule `CCC(C)n1ncn(-c2ccc(N3CCN(c4ccc(OC[C@@H]5CO[C@@](Cc6ccnnc6)(c6cccc(Cl)c6)O5)cc4)CC3)cc2)c1=O` (some centres unmarked) [Compound 124] registered an EC50 below 0.5 µM. `CCC(CC)n1ncn(-c2ccc(N3CCN(c4ccc(OC[C@H]5CO[C@](Cn6cccn6)(c6ccccc6)O5)cc4)CC3)cc2)c1=O` [Compound 167] came in with an EC50 below 0.5 µM. The same measure, in the same setting: to `CCC(C)n1ncn(-c2ccc(N3CCN(c4ccc(OC[C@@H]5CO[C@@](Cc6ccnnc6)(c6cc(Cl)cc(Cl)c6)O5)cc4)CC3)cc2)c1=O` (some centres unmarked) [Compound 139] belongs below 0.5 µM. On the same count and under the same terms, in the case of `CCC(C)n1ncn(-c2ccc(N3CCN(c4ccc(OC[C@@H]5CO[C@@](Cn6nccn6)(c6ncccn6)O5)cc4)CC3)cc2)c1=O` (some centres unmarked) [Compound 38] it was above 30 µM; in that of `CCCC(C)n1ncn(-c2ccc(N3CCN(c4ccc(OC[C@@H]5CO[C@@](Cn6nccn6)(c6ccc(Cl)cc6Cl)O5)cc4)CC3)cc2)c1=O` (some centres unmarked) [Compound 12], 0.5 to 5 µM. As for `CCC(C)n1ncn(-c2ccc(N3CCN(c4ccc(OC[C@@H]5CO[C@@](Cn6cccn6)(c6ccc(S(N)(=O)=O)cc6)O5)cc4)CC3)cc2)c1=O` (some centres unmarked) [Compound 99], the EC50 was in the range of 5 to 30 µM. On the same count and under the same terms, in the case of `CCC(C)n1ncn(-c2ccc(N3CCN(c4ccc(OC[C@@H]5CO[C@@](Cn6ncc7ccccc76)(c6ccc(Cl)cc6Cl)O5)cc4)CC3)cc2)c1=O` (some centres unmarked) [Compound 49] it was 0.5 to 5 µM. The same measure, in the same setting: in the case of `CCC(C)n1ncn(-c2ccc(N3CCN(c4ccc(OC[C@@H]5CO[C@@](Cn6nccn6)(c6ccccc6)O5)cc4)C(C)C3)cc2)c1=O` (some centres unmarked) [Compound 72] it was 5 to 30 µM. The molecule `CCC(C)n1ncn(-c2ccc(N3CCN(c4cc(C)c(OC[C@@H]5CO[C@@](Cn6nccn6)(c6ccccc6)O5)c(C)c4)CC3)cc2)c1=O` (some centres unmarked) [Compound 61] yielded an EC50 of 5 to 30 µM. In turn, `CCC(C)n1ncn(-c2ccc(N3CCN(c4ccc(OC[C@@H]5CO[C@@](Cn6cccn6)(c6ccccc6OC)O5)cc4)CC3)cc2)c1=O` (some centres unmarked) [Compound 85] yielded an EC50 of 0.5 to 5 µM. Same read-out and setting: in the case of `CCC(C)n1ncn(-c2ccc(N3CCN(c4ccc(OC[C@@H]5CO[C@@](Cn6nccn6)(c6ccccc6)O5)cc4)CC3)cc2)c1=O` (some centres unmarked) [Compound 178] it was below 0.5 µM; in that of `CCC(C)n1ncn(-c2ccc(N3CCN(c4ccc(OC[C@@H]5CO[C@](Cc6ccnnc6)(c6cccc(C(F)(F)F)c6)O5)cc4)CC3)cc2)c1=O` (some centres unmarked) [Compound 113], 0.5 to 5 µM. On the same count and under the same terms, to `CC(O)C(C)n1cnn(-c2ccc(N3CCN(c4ccc(OC[C@@H]5CO[C@@](Cn6nccn6)(c6ccccc6)O5)cc4)CC3)cc2)c1=O` (some centres unmarked) [Compound 16] belongs 5 to 30 µM; to `CC[C@H](C)n1ncn(-c2ccc(N3CCN(c4ccc(OC[C@@H]5CO[C@@](Cn6nccn6)(c6ccccc6)O5)cc4)CC3)cc2)c1=O` [Compound 180, 4-(4-(4-(4-(((2S,4R)-2-((2H-1,2,3-triazol-2-yl)methyl)-2-phenyl-1,3-dioxolan-4-yl)methoxy)phenyl)piperazin-1-yl)phenyl)-(S)-1-sec-butyl-1H-1,2,4-triazol-5(4H)-one], below 0.5 µM; to `CCC(C)n1ncn(-c2ccc(N3CCN(c4ccc(OC[C@@H]5CO[C@@](Cn6nccn6)(c6ccccc6)O5)cc4)CC3)c(C#N)c2)c1=O` (some centres unmarked) [Compound 71], 5 to 30 µM. The same measure, in the same setting: to `CCC(C)n1ncn(-c2ccc(N3CCN(c4ccc(OC[C@@H]5CO[C@@](Cn6nccn6)(c6cc(C#N)ccc6Cl)O5)cc4)CC3)cc2)c1=O` (some centres unmarked) [Compound 27] belongs 5 to 30 µM. `CCC(C)n1ncn(-c2ccc(N3CCN(c4ccc(OC[C@@H]5CO[C@](Cc6ccnnc6)(c6cccc(C#N)c6)O5)cc4)CC3)cc2)c1=O` (some centres unmarked) [Compound 110] had an EC50 of 5 to 30 µM. `CCC(C)n1ncn(-c2ccc(N3CCN(c4ccc(OC[C@@H]5CO[C@@](Cn6nccn6)(c6ccc(CN)cc6)O5)cc4)CC3)cc2)c1=O` (some centres unmarked) [Compound 37] registered an EC50 of 0.5 to 5 µM. In turn, `CCC(C)n1ncn(-c2ccc(N3CCN(c4ccc(OC[C@@H]5CO[C@@](Cn6cccn6)(c6ccc(Cl)cc6)O5)cc4)CC3)cc2)c1=O` (some centres unmarked) [Compound 81] gave an EC50 below 0.5 µM.

The assay is the same for the next values; noted with them: imaging and western based activity.
In turn, “cis (±)-4-(4-(4-(4-((4-((2H-1,2,3-triazol-2-yl)methyl)-4-(2,4-difluorophenyl)-1,3-dioxolan-2-yl)methoxy)phenyl)piperazin-1-yl)phenyl)-1-sec-butyl-1H-1,2,4-triazol-5(4H)-one [Compound 199]” registered an EC50 below 0.5 µM.
